Results reported in patent publication US11525018B2, “Methods of preparing compositions for containers and other articles and methods of using same” (SWIMC LLC, priority 2014, dated 2022).

tested on: not listed separately; assay: suitable genotoxicity assays (e.g., Ames II assay); conditions: not given
Procedure: A solution of 4,4′-methylenebis(2,6-di-t-butylphenol) (500 grams, 1.076 moles obtained from Albemarle Corporation) in anhydrous dimethylformamide (1.5 liters) was cooled to −10° C. and a solution of sodium tert-pentoxide (374 grams, 3.23 moles) in anhydrous dimethylformamide (1.5 liters) was added drop wise at −10 to −5° C. The mixture was stirred for 30 minutes at −10° C. Epichlorohydrin (1.9 liters, 24.2 moles) was added via dropping funnel at −10 to −5° C. The solution was allowed to warm up to room temperature and then was heated for 16 hours at a temperature of from 75 to 82° C. After cooling down to ambient temperature, the mixture was added to cold tap water (12 liters). Ethyl acetate (5 liters) was added to the mixture, which was stirred for 10 minutes and separated. The aqueous layer was extracted again with additional ethyl acetate (3 liters). The combined ethyl acetate extracts were washed twice with brine (2×6 liters), dried over anhydrous sodium sulfate (600 grams), and filtered. The solvent was removed under reduced pressure to give 887 grams of crude product as a purple oil. The crude product was dissolved in toluene (600 milliliters) and passed over a silica gel pad (1.4 kilograms), and eluted with a mixture of toluene and heptane (8 parts toluene to 2 parts heptane). The fractions containing product were combined and evaporated under reduced pressure. […]

**Q.** Which genotoxicity does the source give for `CCCC(c1cc(C(C)(C)C)c(OCC2CO2)cc1C)c1cc(C(C)(C)C)c(OCC2CO2)cc1C` (stereo not shown) [Diglycidyl ether of 4,4′Butylidenebis(2-t-butyl-5-methylphenol))] here?
**A.** non-genotoxic

**Q.** With `CC(C)(C)c1cc(Cc2cc(C(C)(C)C)c(OCC3CO3)c(C(C)(C)C)c2)cc(C(C)(C)C)c1OCC1CO1` (stereo not shown) [Diglycidyl ether of 4,4′-methylenebis(2,6-di-tert-butylphenol)] as the compound, how does the genotoxicity read?
**A.** non-genotoxic

target: T1, human estrogen receptor (Homo sapiens, UniProt P03372); assay: suitable in vitro assay correlated to the MCF-7 assay (estrogenic activity); type: cell-based; conditions: in vitro assay whose results are directly correlated to the MCF-7 assay through common reference compounds
T1 sequence (P03372 1-595): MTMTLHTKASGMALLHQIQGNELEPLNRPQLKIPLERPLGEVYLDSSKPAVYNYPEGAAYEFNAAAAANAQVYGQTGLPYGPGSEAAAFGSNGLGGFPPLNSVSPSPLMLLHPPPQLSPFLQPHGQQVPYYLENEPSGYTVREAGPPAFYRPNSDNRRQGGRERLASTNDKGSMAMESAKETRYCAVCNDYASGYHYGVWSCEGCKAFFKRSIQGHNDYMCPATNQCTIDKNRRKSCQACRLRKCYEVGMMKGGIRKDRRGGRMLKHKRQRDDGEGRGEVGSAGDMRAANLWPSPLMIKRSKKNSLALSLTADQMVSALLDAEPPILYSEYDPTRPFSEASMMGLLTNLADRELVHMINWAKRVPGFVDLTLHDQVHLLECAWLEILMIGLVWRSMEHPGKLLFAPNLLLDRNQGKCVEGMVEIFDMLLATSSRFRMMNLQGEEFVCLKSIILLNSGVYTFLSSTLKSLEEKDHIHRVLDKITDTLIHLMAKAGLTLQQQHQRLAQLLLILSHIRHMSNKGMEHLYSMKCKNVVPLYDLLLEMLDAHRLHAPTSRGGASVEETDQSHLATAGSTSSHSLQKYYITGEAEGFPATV

**Q.** With `CCCC(c1cc(C(C)(C)C)c(O)cc1C)c1cc(C(C)(C)C)c(O)cc1C` [Structure 7, 4,4′-butylidenebis(2-t-butyl-5-methylphenol)] as the compound, how does the estrogenic activity read?
**A.** do not exhibit appreciable estrogenic activity

**Q.** For `Cc1cc(Cc2cc(C)cc(C(C)(C)C)c2O)c(O)c(C(C)(C)C)c1` [Structure 9], which estrogenic activity is on record?
**A.** do not exhibit appreciable estrogenic activity

**Q.** For `Cc1cc(Cc2cc(C)c(O)c(C)c2)cc(C)c1O` [Structure 6, 4,4′-methylenebis(2,6-dimethylphenol)], which estrogenic activity is on record?
**A.** do not exhibit appreciable estrogenic activity

**Q.** For `CC(C)(C)c1cc(O)c(C(C)(C)C)cc1O` [Structure 12, 2,5-di-t-butylhydroquinone], which estrogenic activity is on record?
**A.** do not exhibit appreciable estrogenic activity

**Q.** For `CC(C)(C)c1cc(Cc2cc(C(C)(C)C)c(O)c(C(C)(C)C)c2)cc(C(C)(C)C)c1O` [Structure 8, 4,4′-methylenebis(2,6-di-t-butylphenol)], which estrogenic activity is on record?
**A.** do not exhibit appreciable estrogenic activity

tested on: MCF-7, clone WS8, cells; assay: MCF-7 cell proliferation assay of estrogenic activity; type: cell-based, human; conditions: logarithmic (base 10) Relative Proliferative Effect vs 17-beta estradiol (EC50 ratio times 100), cell proliferation as total DNA; values 'expected or measured'
Source text: The MCF-7 assay is a useful test for assessing whether a polyhydric phenol compound is appreciably non-estrogenic. The MCF-7 assay uses MCF-7, clone WS8, cells to measure whether and to what extent a substance induces cell proliferation via estrogen receptor (ER)-mediated pathways. The method is described in “Test Method Nomination: MCF-7 Cell Proliferation Assay of Estrogenic Activity” submitted for validation by CertiChem, Inc. to the National Toxicology Program Interagency Center for the Evaluation of Alternative Toxicological Methods (NICEATM) on Jan. 19, 2006 (available online at http://iccvam.niehs.nih.gov/methods/endocrine/endodocs/SubmDoc.pdf).
A brief summary of the method of the aforementioned MCF-7 assay is provided below. MCF-7, clone WS8, cells are maintained at 37° C. in RMPI (or Roswell Park Memorial Institute medium) containing Phenol Red (e.g., GIBCO Catalog Number 11875119) and supplemented with the indicated additives for routine culture. An aliquot of cells maintained at 37° C. are grown for 2 days in phenol-free media containing 5% charcoal stripped fetal bovine serum in a 25 cm^2 tissue culture flask. Using a robotic dispenser such as an epMotion 5070 unit, MCF-7 cells are then seeded at 400 cells per well in 0.2 ml of hormone-free culture medium in Corning 96-well plates. The cells are adapted for 3 days in the hormone-free culture medium prior to adding the chemical to be assayed for estrogenic activity. The media containing the test chemical is replaced daily for 6 days. At the end of the 7-day exposure to the test chemical, the media is removed, the wells are washed once with 0.2 ml of HBSS (Hanks' Balanced Salt Solution), and then assayed to quantify amounts of DNA per well using a micro-plate modification of the Burton diphenylamine (DPA) assay, which is used to calculate the level of cell proliferation.
RPE is the ratio between the EC50 of the test chemical and the EC50 of the control substance 17-beta estradiol times 100, where EC50 is “effective concentration 50%” or half-maximum stimulation concentration for cell proliferation measured as total DNA in the MCF-7 assay.

**Q.** With `Cc1cc(Cc2cc(C)cc(C3(C)CCCCC3)c2O)c(O)c(C2(C)CCCCC2)c1` [Structure 13] as the compound, how does the “Log RPE” value read?
**A.** less than −4

**Q.** With `Oc1ccccc1Cc1ccccc1O` [Structure 11] as the compound, how does the “Log RPE” value read?
**A.** less than −4

**Q.** Which “Log RPE” value does the source give for `CC(C)(c1ccc(O)cc1)c1ccc(C(C)(C)c2ccc(O)cc2)cc1` [Structure 10] here?
**A.** less than −4

**Q.** For `C[C@]12CC[C@@H]3c4ccc(O)cc4CC[C@H]3[C@@H]1CC[C@@H]2O` [17β-estradiol, reference compound], which “Log RPE” value is on record?
**A.** 2.00

**Q.** Which “Log RPE” value does the source give for `O=C(OCC1CCC(COC(=O)c2cccc(O)c2)CC1)c1cccc(O)c1` (stereo not shown) [Example 2, Run III, bis(3-hydroxybenzoate) of Cyclohexanedimethanol] here?
**A.** less than −4

**Q.** With `CC(c1ccc(O)cc1)(c1ccc(O)cc1)c1ccc(O)cc1` [Structure 3] as the compound, how does the “Log RPE” value read?
**A.** −3

**Q.** Which “Log RPE” value does the source give for `O=S(=O)(c1ccc(O)cc1)c1ccc(O)cc1` [Bisphenol S, reference compound] here?
**A.** −2

**Q.** Which “Log RPE” value does the source give for `CC(C)(c1cc(Br)c(O)c(Br)c1)c1cc(Br)c(O)c(Br)c1` [Structure 16] here?
**A.** −3

**Q.** Which “Log RPE” value does the source give for `Oc1ccc(Cc2ccc(O)cc2)cc1` [Bisphenol F, reference compound] here?
**A.** −2

**Q.** For `CC(C)(C)c1cc(O)c(C(C)(C)C)cc1O` [Structure 12], which “Log RPE” value is on record?
**A.** less than −4

**Q.** For `Cc1cc(Cc2cc(C)cc(C(C)(C)C)c2O)c(O)c(C(C)(C)C)c1` [Structure 9], which “Log RPE” value is on record?
**A.** less than −4

**Q.** With `CCCC(c1cc(C(C)(C)C)c(O)cc1C)c1cc(C(C)(C)C)c(O)cc1C` [Structure 7] as the compound, how does the “Log RPE” value read?
**A.** less than −4

**Q.** With `CCc1cc(Cc2cc(CC)cc(C(C)(C)C)c2O)c(O)c(C(C)(C)C)c1` [Structure 15] as the compound, how does the “Log RPE” value read?
**A.** less than −4

**Q.** With `CC(C(=O)O)(c1ccc(O)cc1)c1ccc(O)cc1` [Structure 5] as the compound, how does the “Log RPE” value read?
**A.** less than −4

**Q.** Which “Log RPE” value does the source give for `Cc1cc(C(C)(C)c2cc(C)c(O)c(C)c2)cc(C)c1O` [Structure 1] here?
**A.** −2

**Q.** For `O=c1c(-c2ccc(O)cc2)coc2cc(O)cc(O)c12` [Genistein, reference compound], which “Log RPE” value is on record?
**A.** −2

**Q.** With `CC(c1ccccc1)(c1ccc(O)cc1)c1ccc(O)cc1` [Structure 4] as the compound, how does the “Log RPE” value read?
**A.** −3

**Q.** With `Cc1cc(CCc2cc(C)c(O)c(C)c2)cc(C)c1O` [Structure 2] as the compound, how does the “Log RPE” value read?
**A.** −3

**Q.** Which “Log RPE” value does the source give for `C/C=C(/C(=C/C)c1ccc(O)cc1)c1ccc(O)cc1` [dienestrol, reference compound] here?
**A.** about 2

**Q.** For `Cc1cc(Cc2cc(C)c(O)c(C)c2)cc(C)c1O` [Structure 6], which “Log RPE” value is on record?
**A.** less than −4

**Q.** With `CC/C(=C(/CC)c1ccc(O)cc1)c1ccc(O)cc1` [diethylstilbestrol, reference compound] as the compound, how does the “Log RPE” value read?
**A.** about 2
